# Source: ChEMBL document CHEMBL1150976, “The selectivity of protein kinase inhibitors: a further update” (Biochem J, 2007)
# Columns and labels:
# [1] = biological target: Mitogen-activated protein kinase 3 (Homo sapiens) (UniProt P27361); assay: Percentage ERK1 activity remaining in the presence of 0.1uM inhibitor
# [2] = biological target: T1, Dual specificity tyrosine-phosphorylation-regulated kinase 2 (Homo sapiens) (UniProt Q92630); assay: Percentage DYRK2 activity remaining in the presence of 0.1uM inhibitor
# T1 sequence (whole entry): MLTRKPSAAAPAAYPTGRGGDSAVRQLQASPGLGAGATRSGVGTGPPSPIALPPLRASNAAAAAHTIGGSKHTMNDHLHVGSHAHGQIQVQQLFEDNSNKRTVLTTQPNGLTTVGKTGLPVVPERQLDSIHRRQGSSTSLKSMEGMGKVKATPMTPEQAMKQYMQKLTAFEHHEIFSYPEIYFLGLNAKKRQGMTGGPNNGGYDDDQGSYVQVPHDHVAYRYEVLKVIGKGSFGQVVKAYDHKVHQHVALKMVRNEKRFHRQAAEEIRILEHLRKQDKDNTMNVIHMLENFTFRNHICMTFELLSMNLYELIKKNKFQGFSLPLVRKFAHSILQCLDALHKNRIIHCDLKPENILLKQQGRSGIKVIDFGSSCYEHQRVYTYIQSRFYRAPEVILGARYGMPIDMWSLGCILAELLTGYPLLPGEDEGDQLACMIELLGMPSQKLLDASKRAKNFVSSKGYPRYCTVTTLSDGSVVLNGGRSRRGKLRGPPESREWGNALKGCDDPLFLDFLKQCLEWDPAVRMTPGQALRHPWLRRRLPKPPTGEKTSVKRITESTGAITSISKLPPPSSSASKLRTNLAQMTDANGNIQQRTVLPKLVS
# [3] = biological target: Serine/threonine-protein kinase Nek6 (Homo sapiens) (UniProt Q9HC98); assay: Percentage NEK6 activity remaining in the presence of 0.1uM inhibitor
# Sequence of Serine/threonine-protein kinase Nek6 (Homo sapiens) (Q9HC98 whole entry): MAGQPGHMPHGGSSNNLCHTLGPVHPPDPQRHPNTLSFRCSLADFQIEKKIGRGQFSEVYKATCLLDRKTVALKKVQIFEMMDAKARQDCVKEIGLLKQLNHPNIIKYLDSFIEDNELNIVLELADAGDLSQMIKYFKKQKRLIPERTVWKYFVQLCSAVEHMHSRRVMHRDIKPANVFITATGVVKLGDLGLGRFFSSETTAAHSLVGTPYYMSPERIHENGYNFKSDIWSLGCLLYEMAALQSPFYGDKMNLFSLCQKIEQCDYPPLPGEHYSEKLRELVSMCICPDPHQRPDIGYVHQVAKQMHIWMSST
# [4] = biological target: Calcium/calmodulin-dependent protein kinase kinase 2 (Homo sapiens) (UniProt Q96RR4); assay: Percentage CaMKKbeta activity remaining in the presence of 0.1uM inhibitor
# Sequence of Calcium/calmodulin-dependent protein kinase kinase 2 (Homo sapiens) (Q96RR4 2-588 limits assumed): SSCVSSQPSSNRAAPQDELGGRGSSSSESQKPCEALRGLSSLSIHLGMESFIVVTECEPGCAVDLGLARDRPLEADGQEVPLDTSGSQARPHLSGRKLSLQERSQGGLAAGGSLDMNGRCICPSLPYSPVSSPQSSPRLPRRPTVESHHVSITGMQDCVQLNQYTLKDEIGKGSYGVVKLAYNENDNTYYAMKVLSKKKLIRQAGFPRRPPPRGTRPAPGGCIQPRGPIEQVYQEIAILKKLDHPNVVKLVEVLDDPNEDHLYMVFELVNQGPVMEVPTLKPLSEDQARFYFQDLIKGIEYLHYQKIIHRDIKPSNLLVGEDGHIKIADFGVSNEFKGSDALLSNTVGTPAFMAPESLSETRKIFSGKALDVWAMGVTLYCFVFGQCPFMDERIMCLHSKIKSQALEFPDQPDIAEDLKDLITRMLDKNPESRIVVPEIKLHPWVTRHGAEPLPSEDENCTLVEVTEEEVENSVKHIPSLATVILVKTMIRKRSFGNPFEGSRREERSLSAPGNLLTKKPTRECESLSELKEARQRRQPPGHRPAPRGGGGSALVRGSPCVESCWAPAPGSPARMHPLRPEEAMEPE
# [5] = biological target: T2, Aurora kinase C (Homo sapiens) (UniProt Q9UQB9); assay: Percentage Aurora C activity remaining in the presence of 0.1uM inhibitor
# T2 sequence (whole entry): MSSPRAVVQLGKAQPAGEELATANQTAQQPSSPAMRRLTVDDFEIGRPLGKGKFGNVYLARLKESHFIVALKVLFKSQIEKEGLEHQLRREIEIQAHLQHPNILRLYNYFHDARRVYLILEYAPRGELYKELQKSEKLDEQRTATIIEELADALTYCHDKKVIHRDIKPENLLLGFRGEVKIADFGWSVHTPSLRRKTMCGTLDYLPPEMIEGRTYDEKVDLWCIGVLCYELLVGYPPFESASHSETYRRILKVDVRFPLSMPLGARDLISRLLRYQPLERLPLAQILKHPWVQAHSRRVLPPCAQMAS
# [6] = biological target: T3, Serine/threonine-protein kinase D1 (Homo sapiens) (UniProt Q15139); assay: Percentage PKD1 activity remaining in the presence of 0.1uM inhibitor
# T3 sequence (whole entry): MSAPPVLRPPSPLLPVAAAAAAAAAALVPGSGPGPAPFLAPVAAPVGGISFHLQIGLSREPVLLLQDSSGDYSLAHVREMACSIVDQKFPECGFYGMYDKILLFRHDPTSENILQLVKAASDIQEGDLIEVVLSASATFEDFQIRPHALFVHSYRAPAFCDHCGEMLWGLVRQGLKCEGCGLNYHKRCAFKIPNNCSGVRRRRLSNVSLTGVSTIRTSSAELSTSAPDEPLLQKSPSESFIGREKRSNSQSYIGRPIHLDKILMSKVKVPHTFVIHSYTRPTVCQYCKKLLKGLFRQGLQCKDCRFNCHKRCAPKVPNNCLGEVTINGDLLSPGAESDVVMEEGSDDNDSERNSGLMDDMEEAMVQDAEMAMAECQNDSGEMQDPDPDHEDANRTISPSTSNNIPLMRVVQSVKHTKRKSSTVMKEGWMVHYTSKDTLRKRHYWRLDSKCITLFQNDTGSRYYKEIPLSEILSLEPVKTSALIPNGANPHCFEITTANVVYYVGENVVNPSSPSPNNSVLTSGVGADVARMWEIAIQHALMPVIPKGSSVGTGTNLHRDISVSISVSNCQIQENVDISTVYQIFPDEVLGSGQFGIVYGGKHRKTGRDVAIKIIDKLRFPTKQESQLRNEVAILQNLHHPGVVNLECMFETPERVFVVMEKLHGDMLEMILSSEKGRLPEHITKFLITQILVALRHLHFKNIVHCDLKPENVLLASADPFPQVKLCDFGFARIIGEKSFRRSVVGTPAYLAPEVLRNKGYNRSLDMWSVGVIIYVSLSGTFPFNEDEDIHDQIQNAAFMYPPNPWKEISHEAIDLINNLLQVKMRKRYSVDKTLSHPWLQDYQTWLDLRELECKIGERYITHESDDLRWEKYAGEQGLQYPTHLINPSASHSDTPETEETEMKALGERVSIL
# [7] = biological target: Mitogen-activated protein kinase 11 (Homo sapiens) (UniProt Q15759); assay: Percentage p38beta activity remaining in the presence of 0.1uM inhibitor
# Sequence of Mitogen-activated protein kinase 11 (Homo sapiens) (Q15759 whole entry): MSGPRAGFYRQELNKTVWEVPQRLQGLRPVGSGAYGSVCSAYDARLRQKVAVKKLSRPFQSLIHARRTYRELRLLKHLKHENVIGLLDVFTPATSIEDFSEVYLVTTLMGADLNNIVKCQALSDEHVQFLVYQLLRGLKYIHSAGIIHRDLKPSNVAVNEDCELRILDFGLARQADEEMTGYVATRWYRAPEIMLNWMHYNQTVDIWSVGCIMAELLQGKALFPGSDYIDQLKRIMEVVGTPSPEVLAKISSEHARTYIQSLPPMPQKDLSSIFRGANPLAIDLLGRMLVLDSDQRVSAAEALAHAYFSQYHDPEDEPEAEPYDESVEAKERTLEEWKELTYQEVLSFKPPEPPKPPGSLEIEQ
# [8] = biological target: Ribosomal protein S6 kinase alpha-5 (Homo sapiens) (UniProt O75582); assay: Percentage MSK1 activity remaining in the presence of 0.1uM inhibitor
# Sequence of Ribosomal protein S6 kinase alpha-5 (Homo sapiens) (O75582 whole entry, looked up): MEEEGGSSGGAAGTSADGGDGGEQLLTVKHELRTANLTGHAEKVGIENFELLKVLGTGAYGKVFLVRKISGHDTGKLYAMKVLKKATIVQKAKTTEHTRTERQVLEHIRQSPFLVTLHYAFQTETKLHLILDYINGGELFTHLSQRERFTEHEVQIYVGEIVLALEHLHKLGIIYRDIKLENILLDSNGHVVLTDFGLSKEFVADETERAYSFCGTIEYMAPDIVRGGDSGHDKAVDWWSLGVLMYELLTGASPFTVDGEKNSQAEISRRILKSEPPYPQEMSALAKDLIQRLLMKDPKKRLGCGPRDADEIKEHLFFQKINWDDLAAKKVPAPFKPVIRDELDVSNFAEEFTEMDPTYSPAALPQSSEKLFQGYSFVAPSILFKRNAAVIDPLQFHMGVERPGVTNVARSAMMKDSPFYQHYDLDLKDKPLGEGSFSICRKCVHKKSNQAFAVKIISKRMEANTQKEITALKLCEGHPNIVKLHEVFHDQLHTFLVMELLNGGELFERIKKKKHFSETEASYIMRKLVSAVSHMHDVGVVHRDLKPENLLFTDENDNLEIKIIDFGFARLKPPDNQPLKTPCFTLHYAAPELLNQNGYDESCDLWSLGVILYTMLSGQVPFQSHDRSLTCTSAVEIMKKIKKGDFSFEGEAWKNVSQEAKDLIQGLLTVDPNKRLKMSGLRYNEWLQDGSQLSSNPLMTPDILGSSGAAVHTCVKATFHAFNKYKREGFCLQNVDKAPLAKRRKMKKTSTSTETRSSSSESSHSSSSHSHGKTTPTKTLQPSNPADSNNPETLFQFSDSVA
# [9] = organism: Homo sapiens; assay: Percentage PHK activity remaining in the presence of 0.1uM inhibitor
# [10] = biological target: Dual specificity mitogen-activated protein kinase kinase 1 (Homo sapiens) (UniProt Q02750); assay: Percentage MKK1 activity remaining in the presence of 0.1uM inhibitor
# Sequence of Dual specificity mitogen-activated protein kinase kinase 1 (Homo sapiens) (Q02750 whole entry): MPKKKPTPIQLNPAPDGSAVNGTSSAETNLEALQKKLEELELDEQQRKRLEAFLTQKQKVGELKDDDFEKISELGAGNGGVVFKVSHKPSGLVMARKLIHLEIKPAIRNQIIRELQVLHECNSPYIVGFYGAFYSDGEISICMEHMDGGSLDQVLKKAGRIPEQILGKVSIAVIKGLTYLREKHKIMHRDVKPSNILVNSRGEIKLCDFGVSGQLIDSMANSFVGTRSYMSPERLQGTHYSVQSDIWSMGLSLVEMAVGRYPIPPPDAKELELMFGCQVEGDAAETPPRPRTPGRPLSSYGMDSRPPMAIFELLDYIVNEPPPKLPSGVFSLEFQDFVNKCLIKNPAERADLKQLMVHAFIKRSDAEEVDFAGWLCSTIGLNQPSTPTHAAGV
# Sequence of Mitogen-activated protein kinase 3 (Homo sapiens) (P27361 whole entry): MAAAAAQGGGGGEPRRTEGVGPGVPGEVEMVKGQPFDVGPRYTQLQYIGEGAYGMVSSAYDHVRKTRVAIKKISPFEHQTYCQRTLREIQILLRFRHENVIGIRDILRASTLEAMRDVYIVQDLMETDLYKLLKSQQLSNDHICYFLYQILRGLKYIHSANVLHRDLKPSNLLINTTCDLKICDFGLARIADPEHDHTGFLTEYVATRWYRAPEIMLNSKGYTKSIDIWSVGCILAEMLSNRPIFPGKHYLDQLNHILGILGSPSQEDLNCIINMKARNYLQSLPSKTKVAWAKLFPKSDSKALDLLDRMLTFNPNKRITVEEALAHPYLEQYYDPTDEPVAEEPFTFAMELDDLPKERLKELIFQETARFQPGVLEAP
Structure (SMILES),Activity [1],Activity [2],Activity [3],Activity [4],Activity [5],Activity [6],Activity [7],Activity [8],Activity [9],Activity ([10]; filed as antagonist),Activity ([1]; filed as antagonist),Activity ([2]; filed as antagonist),Activity ([4]; filed as antagonist),Activity ([5]; filed as antagonist),Activity ([6]; filed as antagonist),Activity ([8]; filed as antagonist),Activity ([9]; filed as antagonist),Activity [10]
CC(C)[C@H](CO)Nc1nc(Nc2cccc(Cl)c2)c2ncn(C(C)C)c2n1 [PURVALANOLA],95%,91%,91%,60%,85%,85%,90%,89%,85%,,,,,,,,,
Cn1c2ccccc2c2c3c(c4c5ccccc5n(CCC#N)c4c21)CNC3=O,,,96%,,,,100%,,,34%,44%,49%,11%,44%,5%,6%,1%,
Cn1cc(C2=C(c3cn(CCCSC(=N)N)c4ccccc34)C(=O)NC2=O)c2ccccc21,88%,90%,97%,65%,77%,66%,99%,,,,,,,,,11%,46%,87%
O=C(NCCCNc1nc(Nc2cccc(NC(=O)N3CCCC3)c2)ncc1I)c1cccs1,66%,76%,98%,,,,71%,84%,62%,33%,,,30%,9%,38%,,,
CN(C)C[C@@H]1CCn2cc(c3ccccc32)C2=C(C(=O)NC2=O)c2cn(c3ccccc23)CCO1,84%,85%,93%,53%,92%,,109%,,,42%,,,,,,44%,49%,
CC(C)CCN1c2nc(Nc3cc(F)c(O)c(F)c3)ncc2N(C)C(=O)C1C (configuration not stated),115%,91%,115%,73%,76%,63%,100%,125%,114%,,,,,,,,,98%
Cc1n[nH]c2ccc(-c3cncc(OC[C@@H](N)Cc4c[nH]c5ccccc45)c3)cc12,59%,,95%,,92%,,105%,,54%,,,26%,,,23%,9%,,67%
